This experiment deals with T1, p38α kinase (Homo sapiens, UniProt Q16539).
T1 construct: purchased Upstate
T1 sequence (Q16539 whole entry): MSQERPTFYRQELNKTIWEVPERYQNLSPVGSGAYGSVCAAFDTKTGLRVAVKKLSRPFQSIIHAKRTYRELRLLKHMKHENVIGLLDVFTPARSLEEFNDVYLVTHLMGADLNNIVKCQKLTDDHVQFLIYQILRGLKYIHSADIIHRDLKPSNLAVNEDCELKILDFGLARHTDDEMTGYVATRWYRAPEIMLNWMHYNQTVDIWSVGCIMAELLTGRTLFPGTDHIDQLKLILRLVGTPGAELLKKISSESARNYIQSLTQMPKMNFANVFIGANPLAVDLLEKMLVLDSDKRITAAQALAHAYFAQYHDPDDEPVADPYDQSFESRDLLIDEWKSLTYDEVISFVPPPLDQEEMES
In words: p38α assay (enzyme inhibition). Type of experiment: biochemical. The method, then: Compound inhibitory activity was measured in a radioactive enzyme assay. The buffer composition was adopted from Lisnock et al (Biochemistry, 1998, vol. 37, pp 16573-16581). Peptide substrate was selected from Chen et al (Biochemistry, 2000, vol. 39, 2079-2087). The concentrations of p38α, [γ-^33P-ATP] and peptide were equal 1 nM, 85 uM and 250 uM, respectively. Incorporation of ^33P into peptide was measured using absorption on filtermats with subsequent wash with 100 mM phosphoric acid followed by ethanol.
cDNAs of human p38α and β were cloned by PCR. The α and β cDNAs were subcloned into DEST2 plasmid (Gateway, InVitrogen). His6-p38 fusion protein was expressed in E. coli and purified from bacterial lysates by affinity chromatography using Ni^+2-NTA-agarose. His6-p38 protein was activated by incubating with constitutively active MKK6. Active p38 was separated from MKK6 by affinity chromatography. Constitutively active MKK6 was generated in a manner similar to Raingeaud et al. (Mol. Cell. Biol., 1247-1255 (1996)).
The p38α assay employed is based on measurement of ADP released in the reaction of interest through NADH oxidation obtained by coupling with pyruvate kinase and lactate dehydrogenase reactions. The assays were performed in 384-well UV-plates. The final volume was 25 uL prepared from the addition of 2.5 uL compound dissolved in 10% DMSO, 17.5 uL of assay buffer and 5 uL of ATP. Assay buffer contains the following reagents to give final concentration in the assay: 25 mM HEPES, 20 mM 2-glycerophosphate, pH 7.6, 10 mM MgCl2, 0.1 mM sodium orthovanadate, 0.5 mM phosphoenolpyruvate, 0.12 mM NADH, 3.1 mg/ml LDH, 6.67 mg/ml pyruvate kinase, 0.25 mM peptide substrate, 2 mM DTT, 0.005% Tween 80 and 20 nM p38α kinase from Upstate. Test compounds are preincubated with p38α kinase for 60 min and the reaction started by addition of ATP to 0.15 mM final concentration. Reaction rates were measured at 340 nm using SpectraMax plate-reading spectrophotometer for 10 min at 37° C. Inhibition data were analyzed by non-linear least-squares regression using SigmaPlot.
As a reminder, the IC50 is the concentration that gives 50% inhibition. Regarding `Cc1cccc(-c2nc(Nc3cc(C(=O)NC4CC4)ccc3C)sc2C(=O)NCc2ccccc2)c1` [Compound 28-6, 2-(5-Cyclopropylcar-bamoyl-2-methyl-phenylamino)-4-m-tolyl-thiazole-5-carboxylic acid benzylamide], the IC50 was in the range of 50 to 100 nM.
The compound `CONC(=O)c1ccc(C)c(Nc2noc(-c3ccccc3)n2)c1` [Compound 2, N-methoxy-4-methyl-3-(5-phenyl-[1,2,4]oxadiazol-3-ylamino)-benzamide] came in with an IC50 of less than 50 nM.
As to `Cc1ccc(C(=O)NC2CC2)cc1Nc1nc(-c2cccc(CN)c2)c(C(=O)NCc2ccccc2)s1` [Compound 28-24, 4-(3-Aminomethyl-phenyl)-2-(5-cyclo-propylcarbamoyl-2-methylphenylamino) thiazole-5-carboxylic acid benzylamide], the IC50 was less than 50 nM.
Turning to `Cc1ccc(C(=O)NC2CC2)cc1Nc1nc(-c2cccc(C#N)c2)c(C(=O)NCc2ccccc2)s1` [Compound 28-9, 4-(3-Cyano-phenyl)-2-(5-cyclopropyl-carbamoyl-2-methyl-phenylamino)thia-zole-5-carboxylic acid benzylamide], the IC50 was 50 to 100 nM.
`CONC(=O)c1ccc(C)c(Nc2nnc(-c3ccccc3)[nH]2)c1` [Compound 1, N-methoxy-4-methyl-3-(5-phenyl-4H-[1,2,4]triazol-3-ylamino)-benzamide]: the IC50 was less than 50 nM.
The result for `Cc1ccc(C(=O)NC2CC2)cc1Nc1nc(-c2ccc3[nH]ccc3c2)c(C(=O)NCc2ccccc2)s1` [Compound 28-40, 2-(5-Cyclopropylcar-bamoyl-2-methyl-phenylamino)-4-(1H-indol-5-yl)-thiazole-5-carboxylic acid benzylamide] reads more than 100 nM; that for `Cc1ccc(C(=O)NC2CC2)cc1Nc1nc(-c2ccccc2)cs1` [Compound 3, N-Cyclopropyl-4-methyl-3-(4-phenyl-thiazol-2-ylamino)-benzamide], more than 100 nM.
The compound `Cc1ccc(C(=O)NC2CC2)cc1Nc1ncc(C(=O)NCc2ccccc2)s1` [Compound 26, 2-(5-Cyclopropylcarbamoyl-2-methyl-phenylamino)-thiazole-5-carboxylic acid benzylamide] showed a 50% inhibitory concentration (IC50) of less than 50 nM.
